Tested on: variants of SARS-CoV-2
Experiment: Infection of cells with a SARS-CoV-2 variant in the same manner
Assay type: cell-based
Conditions: cells infected with a variant in the same manner

In the case of `NCC(=O)CCC(=O)O` [5-ALA, 5-aminolevulinic acid], the “inhibitory effect on SARS-CoV-2 infection and/or proliferation (variant)” value was “inhibitory effect on SARS-CoV-2 infection and/or proliferation is expected”.

Source: patent US20230190690A1, “[…] AND/OR […] FOR CORONAVIRUS DISEASE 2019 (COVID-19)” (NEOPHARMA JAPAN CO., LTD., priority 2020, published 2023)
